# Reference: patent publication US10227345B2, “Compounds and methods for inhibiting fascin” (Cornell University, priority 2014, dated 2019)
# pIC50: −log10 of the molar value.
# Target: T1, human fascin 1 (Homo sapiens, UniProt Q16658)
# T1 construct: GST (N, cleaved yes); made in house; host or cells: Escherichia coli BL21/DE3 (pGEX4T-fascin 1 plasmid)
# Experiment: Fascin inhibition (actin bundling) assay, image-based
# Type: biochemical
# Details: in the presence of 50 μm of the compound relative to bundle activity when the compound was not present; read-out: Inhibition (percentage reduction of bundle activity)
# Outline: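 GST-tagged human fascin 1 from E. coli, thrombin-cleaved, was preincubated with compounds for 30 min, then polymerized actin was added; compounds were at 30 μM final. Bundles captured on poly-D-lysine plates were imaged, and background-corrected bundle length per well was computed, with DMSO-only wells as negative controls.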
row,Structure (SMILES),inhibition at 50 µM
1,"Cc1nocc1C(=O)Nc1nn(Cc2ccc(Cl)cc2)c2ccccc12 [Compound 65, N-(1-(4-chlorobenzyl)-1H-indazol-3-yl)-3-methylisoxazole-4-carboxamide]",90%
2,"O=C(Nc1nn(Cc2ccc(Cl)cc2)c2ccccc12)c1ccno1 [Compound 66, N-(1-(4-chlorobenzyl)-1H-indazol-3-yl)isoxazole-5-carboxamide]",100%
3,"Cc1nocc1C(=O)Nc1nn(Cc2ccc(C(F)(F)F)cc2)c2cncc(Cl)c12 [Compound 142, N-(4-chloro-1-(4-(trifluoromethyl)benzyl)-1H-pyrazolo[3,4-c]pyridin-3-yl)-3-methylisoxazole-4-carboxamide]",10%
4,"N#Cc1ccc2c(c1)c(N)nn2Cc1ccc(C(F)(F)F)nc1 [Compound 97, 3-amino-1-((6-(trifluoromethyl)pyridin-3-yl)methyl)-1H-indazole-5-carbonitrile]",< 10%
5,"CCCC(=O)Nc1nn(Cc2ccc(C(F)(F)F)cc2)c2cncc(Cl)c12 [Compound 153, N-(4-chloro-1-(4-(trifluoromethyl)benzyl)-1H-pyrazolo[3,4-c]pyridin-3-yl)butyramide]",10%
6,"O=C(Nc1nn(Cc2ccc(C(F)(F)F)cc2)c2cncc(Cl)c12)c1ccoc1 [Compound 140, N-(4-chloro-1-(4-(trifluoromethyl)benzyl)-1H-pyrazolo[3,4-c]pyridin-3-yl)furan-3-carboxamide]",10%
7,"O=C(Nc1nn(Cc2ccccc2C(F)(F)F)c2ccccc12)c1ccoc1 [Compound 57, N-(1-(2-(trifluoromethyl)benzyl)-1H-indazol-3-yl)furan-3-carboxamide]",< 10%
8,"Cc1ccc(Cn2nc(NC(=O)c3conc3C)c3ccccc32)cc1 [Compound 79, 3-methyl-N-(1-(4-methylbenzyl)-1H-indazol-3-yl)isoxazole-4-carboxamide]",< 10%
9,"Cc1ncsc1C(=O)Nc1nn(Cc2ccc(C(F)(F)F)nc2)c2ccc(C#N)cc12 [Compound 101, N-(5-cyano-1-((6-(trifluoromethyl)pyridin-3-yl)methyl)-1H-indazol-3-yl)-4-methylthiazole-5-carboxamide]",< 10%
10,"Cc1ncsc1C(=O)Nc1nn(Cc2ccc(C(F)(F)F)cc2)c2cncc(Cl)c12 [Compound 138, N-(4-chloro-1-(4-(trifluoromethyl)benzyl)-1H-pyrazolo[3,4-c]pyridin-3-yl)-4-methylthiazole-5-carboxamide]",90%
11,"Cc1nocc1C(=O)Nc1nn(Cc2ccc(C(F)(F)F)nc2)c2ccccc12 [Compound 93, 3-methyl-N-(1-((6-(trifluoromethyl)pyridin-3-yl)methyl)-1H-indazol-3-yl)isoxazole-4-carboxamide]",< 10%
12,"Cc1ccc2c(NC(=O)c3ccoc3)nn(Cc3ccc(C(F)(F)F)cc3)c2n1 [Compound 132, N-(6-methyl-1-(4-(trifluoromethyl)benzyl)-1H-pyrazolo[3,4-b]pyridin-3-yl)furan-3-carboxamide]",< 10%
13,"Nc1nn(Cc2ccc(C(F)(F)F)cc2)c2cccc(Cl)c12 [Compound 116, 4-chloro-1-(4-(trifluoromethyl)benzyl)-1H-indazol-3-amine]",< 10%
14,"Cc1occc1C(=O)Nc1nn(Cc2ccc(C(F)(F)F)cc2)c2cccc(Cl)c12 [Compound 119, N-(4-chloro-1-(4-(trifluoromethyl)benzyl)-1H-indazol-3-yl)-2-methylfuran-3-carboxamide]",< 10%
15,"N#Cc1ccc(Cn2nc(NC(=O)c3ccoc3)c3ccccc32)cc1 [Compound 85, N-(1-(4-cyanobenzyl)-1H-indazol-3-yl)furan-3-carboxamide]",< 10%
16,"Nc1nn(Cc2ccc(C(F)(F)F)cc2)c2cncc(Cl)c12 [Compound 137, 4-chloro-1-(4-(trifluoromethyl)benzyl)-1H-pyrazolo[3,4-c]pyridin-3-amine]",100%
17,"Cc1ccc2c(N)nn(Cc3ccc(C(F)(F)F)cc3)c2n1 [Compound 131, 6-methyl-1-(4-(trifluoromethyl)benzyl)-1H-pyrazolo[3,4-b]pyridin-3-amine]",< 10%
18,"FC(F)(F)c1ccc(Cn2nc(-c3cccc4ccccc34)c3ccccc32)cc1 [Compound 145, 3-(naphthalen-1-yl)-1-(4-(trifluoromethyl)benzyl)-1H-indazole]",10%
19,"Cc1ccc2c(NC(=O)c3ccoc3C)nn(Cc3ccc(C(F)(F)F)cc3)c2n1 [Compound 134, 2-methyl-N-(6-methyl-1-(4-(trifluoromethyl)benzyl)-1H-pyrazolo[3,4-b]pyridin-3-yl)furan-3-carboxamide]",< 10%
20,"N#Cc1ccc2c(c1)c(NC(=O)c1ccoc1)nn2Cc1ccc(C(F)(F)F)nc1 [Compound 98, N-(5-cyano-1-((6-(trifluoromethyl)pyridin-3-yl)methyl)-1H-indazol-3-yl)furan-3-carboxamide]",< 10%
21,"O=C(Nc1nn(Cc2ccc(C(F)(F)F)nc2)c2ccc(C(F)(F)F)cc12)c1cccnn1 [Compound 127, N-(5-(trifluoromethyl)-1((6-(trifluoromethyl)pyridin-3-yl)methyl)-1H-indazol-3-yl)pyridazine-3-carboxamide]",< 10%

# More lines, now with the values ahead:
row,inhibition at 50 µM,Structure (SMILES)
1,100%,"O=C(Nc1nn(Cc2ccc(C(F)(F)F)cc2)c2ccccc12)c1cccnn1 [Compound 49, N-(1-(4-(trifluoromethyl)benzyl)-1H-indazol-3-yl)pyridazine-3-carboxamide]"
2,100%,"Cc1nocc1C(=O)Nc1nn(Cc2ccc(C(F)(F)F)cc2)c2ccccc12 [Compound 35, 3-methyl-N-(1-(4-(trifluoromethyl)benzyl)-1H-indazol-3-yl)isoxazole-4-carboxamide]"
3,< 10%,"Cc1cccc(C(=O)Nc2nn(Cc3ccc(C(F)(F)F)cc3)c3ccccc23)c1 [Compound 17, 3-methyl-N-(1-(4-(trifluoromethyl)benzyl)-1H-indazol-3-yl)benzamide]"
4,< 10%,"O=C(Nc1nn(Cc2ccc(C(F)(F)F)cc2)c2ccccc12)c1sccc1Cl [Compound 41, 3-chloro-N-(1-(4-(trifluoromethyl)benzyl)-1H-indazol-3-yl)thiophene-2-carboxamide]"
5,10%,"Cc1ccc(-c2ccc(C(=O)Nc3nn(Cc4ccc(C(F)(F)F)cc4)c4ccccc34)o2)cc1 [Compound 3, 5-(p-tolyl)-N-(1-(4-(trifluoromethyl)benzyl)-1H-indazol-3-yl)furan-2-carboxamide]"
6,90%,"O=C(Nc1nn(Cc2ccc(C(F)(F)F)cc2)c2ccccc12)c1cncnc1 [Compound 56, N-(1-(4-(trifluoromethyl)benzyl)-1H-indazol-3-yl)pyrimidine-5-carboxamide]"
7,10%,"FC(F)(F)c1ccc(Cn2nc(-c3ccccc3)c3ccccc32)cc1 [Compound 144, 3-Phenyl-1-(4-(trifluoromethyl)benzyl)-1H-indazole]"
8,< 10%,"O=C(Nc1nn(Cc2ccc(C(F)(F)F)cc2)c2ccccc12)c1cc2ccccc2o1 [Compound 2, N-(1-(4-(trifluoromethyl)benzyl)-1H-indazol-3-yl)benzofuran-2-carboxamide]"
9,< 10%,"O=C(Nc1nn(Cc2ccc(C(F)(F)F)cc2)c2ccccc12)c1ccccn1 [Compound 55, N-(1-(4-(trifluoromethyl)benzyl)-1H-indazol-3-yl)picolinamide]"
10,< 10%,"O=C(Nc1nn(Cc2ccc(C(F)(F)F)cc2)c2ccccc12)c1ccsc1Cl [Compound 38, 2-chloro-N-(1-(4-(trifluoromethyl)benzyl)-1H-indazol-3-yl)thiophene-3-carboxamide]"
11,10%,"O=C(Nc1nn(Cc2ccc(C(F)(F)F)cc2)c2ccccc12)c1cccc(Cl)c1 [Compound 7, 3-chloro-N-(1-(4-(trifluoromethyl)benzyl)-1H-indazol-3-yl)benzamide]"
12,10%,"Cc1occc1-c1nn(Cc2ccc(C(F)(F)F)cc2)c2ccccc12 [Compound 148, 3-(2-methylfuran-3-yl)-1-(4-(trifluoromethyl)benzyl)-1H-indazole]"
13,< 10%,"Cc1scnc1C(=O)Nc1nn(Cc2ccc(C(F)(F)F)cc2)c2ccccc12 [Compound 32, 5-methyl-N-(1-(4-(trifluoromethyl)benzyl)-1H-indazol-3-yl)thiazole-4-carboxamide]"
14,< 10%,"O=C(Nc1nn(Cc2ccc(C(F)(F)F)cc2)c2ccccc12)c1cccc(F)c1 [Compound 14, 3-fluoro-N-(1-(4-(trifluoromethyl)benzyl)-1H-indazol-3-yl)benzamide]"
15,100%,"O=C(Nc1nn(Cc2ccc(C(F)(F)F)cc2)c2ccccc12)c1ccno1 [Compound 25, N-(1-(4-(trifluoromethyl)benzyl)-1H-indazol-3-yl)isoxazole-5-carboxamide]"
16,< 10%,"Cc1csc(C(=O)Nc2nn(Cc3ccc(C(F)(F)F)cc3)c3ccccc23)n1 [Compound 11, 4-methyl-N-(1-(4-(trifluoromethyl)benzyl)-1H-indazol-3-yl)thiazole-2-carboxamide]"

# Test system: MDA-MB-231 human breast tumor cells
# Experiment: Boyden-chamber cell migration assay
# Type: cell-based
# Details: migration 6 h
# Description: Certain tumor cells with fascin expression are listed below.
# Exemplifying procedure: MDA-MB-231 cells (5×10^4) or 4T1 Cells (1×10^5) were suspended in 100 μl starvation medium and added to the upper chamber of an insert (6.5 mm diameter, 8 μm pore size; Becton Dickson). The insert was placed in a 24-well plate containing 700 μL starvation medium with or without 10% FBS. […] Migration assays were performed for 6 h and cells are fixed with 3.7% formaldehyde. Cells were stained with crystal violet staining solution, and cells on the upper side of the insert were removed with a cotton swab. Three randomly selected fields (×10 objectives) on the lower side of the insert were photographed, and the migrated cells were counted. Migration was expressed as average number of migrated cells in a field.
row,Structure (SMILES),pIC50
1,"Cc1nocc1C(=O)Nc1nn(Cc2ccc(Cl)cc2)c2ccccc12 [Compound 65, N-(1-(4-chlorobenzyl)-1H-indazol-3-yl)-3-methylisoxazole-4-carboxamide]",4.19
2,"O=C(Nc1nn(Cc2ccc(Cl)cc2)c2ccccc12)c1ccno1 [Compound 66, N-(1-(4-chlorobenzyl)-1H-indazol-3-yl)isoxazole-5-carboxamide]",3.79

# Other lines, results leading:
row,pIC50,Structure (SMILES)
1,4.89,"O=C(Nc1nn(Cc2ccc(C(F)(F)F)cc2)c2ccccc12)c1cccnn1 [Compound 49, N-(1-(4-(trifluoromethyl)benzyl)-1H-indazol-3-yl)pyridazine-3-carboxamide]"
2,4.74,"Cc1nocc1C(=O)Nc1nn(Cc2ccc(C(F)(F)F)cc2)c2ccccc12 [Compound 35, 3-methyl-N-(1-(4-(trifluoromethyl)benzyl)-1H-indazol-3-yl)isoxazole-4-carboxamide]"
3,4.27,"O=C(Nc1nn(Cc2ccc(C(F)(F)F)cc2)c2ccccc12)c1ccno1 [Compound 25, N-(1-(4-(trifluoromethyl)benzyl)-1H-indazol-3-yl)isoxazole-5-carboxamide]"
